# Article PMC2683593 (The Journal of neuroscience : the official journal of the …, 2009)
# Values joined by “and” are separate entries in the source; they are usually repeats but may differ in a detail not shown here. Equal entries are not always repeated. “Also recorded” adds a separate entry of the source. Where two headings read alike, the source gives them in different places.
# Assays:
# Assay type in all cases: cell-based, Swiss-Webster mice
# [1] = system: cerebrocortical neurons
# [2] = system: cerebrocortical neurons; remark: listed apart in the source
# [3] = system: cerebrocortical neurons; test: Intracellular Ca2+ monitoring
# [4] = system: cerebrocortical neurons; test: Viable neuron count by fluorescein diacetate staining; settings: read-out: EC50 for decreasing the live neuron count, DIV-9, 95% CI 38.4–176 μM
# [5] = system: NMDA receptors; test: Single-channel cell-attached patch recording of NMDA receptor currents
# [6] = system: cerebrocortical neurons; test: Membrane potential assay
# [7] = system: Src kinase
# [8] = system: cerebrocortical neurons; test: Intracellular sodium concentration
# [9] = 15 min preincubation with 10 μM PP2 or PP3, after PbTx-2
# [10] = 15 min preincubation with 10 μM PP2 or PP3, before PbTx-2
smiles,measurement,setting,value
C[C@]12N[C@H](Cc3ccccc31)c1ccccc12 [MK-801],effect on PbTx-2 enhanced neurite outgrowth,[1],abrogated
same,"total neurite length, inhibitor plus 30 nM PbTx-2",[1],83.1± 5.26 μm
CN[C@H](CC(=O)O)C(=O)O [NMDA],sensitivity to NMDA-induced LDH efflux,"[2]; 2, 4 and 6 DIV cultures, after 2 h exposure or at 24 h post-exposure",little sensitivity
same,maximal LDH efflux,"[2]; DIV-9 cultures, 24 h after initiation of 2 h NMDA exposure",247 ± 10.5 % of control
same,EC50,"[2]; read-out: EC50 for LDH efflux, DIV-9 neurons, 95% CI 27.9–101 μM",53.1 µM
same,effect of NMDA alone on [Ca2+]i,"[3]; 3 μM NMDA, DIV-2 neurons",did not affect [Ca^2+]i
same,EC50,"[3]; read-out: EC50 for NMDA-induced Ca2+ influx, DIV-4 neurons, absence of PbTx-2",19.2 µM
same,EC50,"[3]; read-out: EC50 for NMDA-induced Ca2+ influx, DIV-9 neurons, absence of PbTx-2",11.1 µM
same,EC50,[4],82.2 µM
"NC1=N[C@H](O)[C@H]2[C@H]3O[C@]4(O)O[C@@H]([C@@H](O)[C@@]2(N1)[C@@H]4O)[C@]3(O)CO [TTX, tetrodotoxin]",effect on PbTx-2 enhanced neurite outgrowth,[1],completely blocked
same,"total neurite length, inhibitor alone",[1],185 ± 13.2 μm
same,"total neurite length, inhibitor plus 30 nM PbTx-2",[1],190.2 ± 10.7 μm
"Nc1ncnc2c1cnn2-c1ccccc1 [PP3, 4-Amino-7-phenylpyrazol [3,4-d] pyrimidine]","mean open time, inhibitor plus PbTx-2",[5]; [9],3.87 ± 0.15 ms
same,"open probability (Po), inhibitor plus PbTx-2",[5]; [9],0.013 ± 0.003
same,"mean open time, inhibitor alone (control)",[5]; [10],1.39 ± 0.09 ms
same,"open probability (Po), inhibitor alone (control)",[5]; [10],0.0032 ± 0.0005
"C=C(C=O)C[C@@H]1C[C@H](O)[C@]2(C)O[C@@H]3C[C@@H]4O[C@@H]5C[C@]6(C)O[C@]7(C)CC[C@@H]8O[C@@H]9C[C@]%10(C)O[C@@H]%11C(C)=CC(=O)O[C@H]%11C[C@H]%10O[C@H]9C[C@@H](C)[C@H]8O[C@H]7C[C@H]6O[C@H]5C/C=C\[C@H]4O[C@H]3C[C@H]2O1 [PbTx-2, Brevetoxin-2]",membrane potential after PbTx-2,[6],29.3 ± 0.02 mV
same,membrane potential change (depolarization),[6],0.2 ± 0.02 mV
same,EC50,[6]; read-out: EC50 for increment in FMP blue fluorescence (membrane potential),0.0967 µM
same,phosphorylation of tyrosine 416 of Src,[7],significant increase
same,Ca2+ influx pathway stimulated,[3],primarily through NMDA receptors; also recorded: through both L-type calcium channels and NMDA receptors
same,effect of PbTx-2 alone on [Ca2+]i,[3],did not alter [Ca^2+]i
same,effect of PbTx-2 alone on fluo-3 fluorescence,[3],did not increase fluo-3 fluorescence
same,effect on NMDA-induced Ca2+ influx,[3],robust potentiation
same,EC50,[3]; read-out: EC50 for PbTx-2-stimulated increase in [Ca2+]i,0.244 µM
same,amplitude of single channel currents,[5],6.8 ± 0.4 pA
same,effect on membrane potential from single channel NMDA receptor currents,[5],did not affect
same,open probability (Po) of NMDA receptors,[5],0.031 ± 0.008
same,"open time histogram, first time constant (area)",[5],1.6 (65%)
same,"open time histogram, second time constant (area)",[5],4.1 (35%)
same,"shut time histogram, first time constant (area)",[5],0.63 (45%)
same,"shut time histogram, fourth time constant (area)",[5],1361 (11%)
same,"shut time histogram, second time constant (area)",[5],10.0 (16%)
same,"shut time histogram, third time constant (area)",[5],180 (28%)
same,[Na+]i increment over basal,[8],8.8 ± 1.8 mM
same,concentration-response profile of [Na+]i,[8],hormetic profile
same,maximum [Na+]i,[8],16.9 ± 1.5 mM
same,maximum elevation of [Na+]i (concentration-response),[8],36.6 ± 0.9 mM
same,EC50,[8]; read-out: EC50 for PbTx-2-induced elevation of [Na+]i,0.0433 µM
same,total neurite length,[1],265.8 ± 20.86 μm and 166.5 ± 17.9 μm
"O=C(O)c1ccc2c3c1cccc3c(=O)n1c3ccccc3nc21 [STO-609, 1,8-naphthoylene benzimidazole-3-carboxylic acid]",effect on PbTx-2 enhanced neurite outgrowth,[1],completely blocked
